Structures can show the parent of a compound that is named as a salt.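 Briefly, cells in 96-well plates were exposed to five compound concentrations for 48 h, and endpoints were estimated by linear interpolation. GI50 is the concentration that inhibits growth by half.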 Activity calls are given as the source filed them. No stated cut-off is given here; in the data, active = GI50 up to about 1.1 µM and inactive = higher.
Columns and labels:
Test in all cases: inhibition of tumour cell growth, NCI panel, 48 h
DU-145 = system: DU-145
Hs-578T = system: Hs-578T
MDA-N = system: MDA-N
T47D = system: T47D
DMS-114 = system: DMS-114
LXFL 529 = system: LXFL 529
RXF 631 = system: RXF 631
M19-MEL = system: M19-MEL
XF498 = system: XF498

| SMILES | GI50 (DU-145) | GI50 (Hs-578T) | GI50 (MDA-N) | GI50 (T47D) | GI50 (DMS-114) | GI50 (LXFL 529) | GI50 (RXF 631) | GI50 (M19-MEL) | GI50 (XF498) |
| --- | --- | --- | --- | --- | --- | --- | --- | --- | --- |
| O=C(N[C@H]1c2ccsc2/C(=N/O)[C@H]1O)C(F)(F)F | > 100 µM (inactive) | > 100 µM (inactive) | > 100 µM (inactive) | > 100 µM (inactive) |  |  |  |  |  |
| CCCc1c(-c2ccccc2)[nH]c2ccccc2c1=O | > 100 µM (inactive) | > 100 µM (inactive) | 41.4 µM (inactive) | 25.9 µM (inactive) |  |  |  |  |  |
| CCCCn1cc[n+](-c2nc3ccccc3n2C)c1 |  |  |  |  | > 100 µM (inactive) | > 100 µM (inactive) | > 100 µM (inactive) |  |  |
| c1ccc(Nc2nnc(-c3nsc4ccccc34)o2)cc1 |  |  |  |  | > 100 µM (inactive) | 85.5 µM (inactive) |  | > 100 µM (inactive) |  |
| CC(=O)Oc1ccc(C2COc3cc(OC(C)=O)c(OC(C)=O)cc3C2)cc1 (stereo unspecified) |  |  |  |  | 4.44 µM (inactive) |  |  | 12.9 µM (inactive) | 12.2 µM (inactive) |
| C/C(=C\c1ccccc1)C(=O)CCN1CCOCC1 |  |  |  |  | 18.7 µM (inactive) |  |  | 17.2 µM (inactive) | 18.3 µM (inactive) |
| C=CC1(c2ccc3ccccc3c2)OCC(CC)O1 (stereo unspecified) | > 100 µM (inactive) | 22.4 µM (inactive) | 24.8 µM (inactive) | 35 µM (inactive) |  |  |  |  |  |
| CC(C)(CCCCC(C)(C)C1NC(=O)N1)C1NC(=O)N1 | > 10 µM (inactive) | > 10 µM (inactive) | > 10 µM (inactive) | > 10 µM (inactive) |  |  |  |  |  |
| C1=C2C3=[N+](CCCCC3)CC2Cc2ccsc21 (stereo unspecified) | > 100 µM (inactive) | > 100 µM (inactive) | > 100 µM (inactive) | 63.5 µM (inactive) |  |  |  |  |  |
| CN1CCc2[nH]c3ccccc3c2C1 |  |  |  |  | > 100 µM (inactive) |  |  | > 100 µM (inactive) | > 100 µM (inactive) |
| COc1cc2c(cc1OC)C1Cc3cc(OC)c(OC)cc3C(C2)O1 | > 100 µM (inactive) |  | > 100 µM (inactive) | 58.5 µM (inactive) |  |  |  |  |  |
| C[C@]12CC[C@H]3[C@@H](CC=C4C[C@@H](O)CC[C@@]43C)[C@@H]1C/C(=C\c1ccc([N+](=O)[O-])cc1)[C@@H]2O | 11 µM (inactive) | 16.9 µM (inactive) |  | 4.38 µM (inactive) |  |  |  |  |  |
| COc1ccc(/C=C2/C(=O)N(C(=O)c3ccccc3O)N=C2C)cc1 | 0.192 µM (active) |  | 0.125 µM (active) | 4.32 µM (inactive) | 0.117 µM (active) | 0.205 µM (active) |  | 0.542 µM (active) | 0.3 µM (active) |
| CNCCC=C1c2ccccc2CCc2ccccc21 [NORTRIPTYLINE HYDROCHLORIDE] | 14.5 µM (inactive) | 19.6 µM (inactive) | 15.6 µM (inactive) | 9.23 µM (inactive) |  |  |  |  |  |
| COc1ccc(C(O)/C(=N\NC(N)=S)c2nc3ccc([N+](=O)[O-])cc3nc2O)cc1OC (stereo unspecified) |  |  |  |  | 53.1 µM (inactive) | > 100 µM (inactive) | > 100 µM (inactive) | > 100 µM (inactive) | > 100 µM (inactive) |
| ClCCCN1CCCCC1CCl (stereo unspecified) |  |  |  |  | 83 µM (inactive) | > 100 µM (inactive) |  | > 100 µM (inactive) |  |
| Cc1cc(C)c(NC(=O)/C=C/c2ccccc2)c(C)c1 |  | 57.7 µM (inactive) |  |  |  |  |  |  |  |

— ChEMBL document CHEMBL1201862, “PubChem BioAssay data set” (2004)
